Test results taken from patent US20220257601A1, “INHIBITORS OF PRC1 FOR TREATMENT OF CANCER” (Board of Regents, The University of Texas System, priority 2019, published 2022).
Several values for one entry are separate records, joined by “and”; a condition that tells them apart may be missing. Equal entries are not always repeated. Where two headings read alike, the source gives them in different places. Each block holds one compound with its values, some of them ahead of it.

Tests used:
PC3 cells [1] = assay: Bone metastasis after intracardiac injection of PC3 cells in male nude mice; type: in vivo, mouse; conditions: for Outgrowth of macroscopic bone lesions (bioluminescent imaging): data not shown
Description: (§1) For localized tumor growth assay, cells were resuspended in 100 μl PBS with Matrigel in 1:1 ratio and subcutaneously injected into both rear flanks. The volume of the s.c. xenograft was calculated as V=L×W^2/2, where L and W stand for tumor length and width, respectively. For experimental metastasis assays, cells were resuspended in 100 μl 1×PBS and intracardially injected into the left ventricle with a 26 G tuberculin syringe. For bone colonization, RM1 cells were resuspended 100 μl 1×PBS and injected into the intra-femoral artery. Metastatic burden was detected through non-invasive bioluminescence imaging of experimental animals using an IVIS Spectrum.
(§2) To investigate the effect of drug treatment, compounds or antibodies were delivered twice every week or every three days through i.p. injection except BLZ945, which was delivered orally. Bioluminescence signal was measured using the ROI tool in Living Image 4.4 software (PerkinElmer).
(§3) For bioluminescent imaging, mice were anesthetized and injected with 1.5 mg of D-luciferin retro-orbitally at the indicated times. Animals were imaged in an IVIS® 100 chamber within 5 min after D-luciferin injection, and data were recorded using LIVING IMAGE® software (Xenogen). To measure bone colonization after intracardiac injection, photon flux was calculated by using the ROI tool in the LIVING IMAGE® software. Bone metastases were further confirmed by X-Ray imaging. Mice were anesthetized with ketamine (100 mg/kg) and xylazine (10 mg/kg), placed on digital X ray Film (Scan X) and exposed at 25 kV for 15 s using a Faxitron instrument (Model MX-20; Faxitron Corp. Buffalo, Ill.).
(§4) The tissue sections were deparaffinized with EZPrep buffer (Ventana Medical Systems), antigen retrieval was performed with CC1 buffer (Ventana Medical Systems). Sections were blocked for 30 minutes with Background Buster solution (Innovex), followed by avidin-biotin blocking for 8 minutes (Ventana Medical Systems) (except for slides stained with CD4 and NKp46 antibodies). Sections were incubated with anti-RNF2, anti-BMI1, anti-Ki67, anti-Cleaved Caspase 3, anti-CD11b, anti-CD68, anti-CD8, anti-CD31, anti-B220, anti-FoxP3, anti-CD4, or anti-NKp46 for 5 hours, followed by 60 minutes incubation with biotinylated horse anti-rabbit IgG at 1:200 dilution (for Ki67, Cleaved Caspase 3, CD11b and CD8) or biotinylated goat anti-rat IgG at 1:200 dilution (for CD31, B220 and FoxP3) or biotinylated horse anti-goat IgG at 1:200 dilution (for CD4 and NKp46). The detection was performed with DAB detection kit (Ventana Medical Systems) according to manufacturer instruction. Slides were counterstained with hematoxylin and coverslipped with PERMOUNT™ (Fisher Scientific).

[2] = tested on: RNF2 target genes (CCL2, CXCL1, LGR5, NTS, ATF3); assay: Quantitative RT-PCR of RNF2 target genes in PC3 or RM1 cells; type: cell-based; conditions: 0.5 and 1.0 μM; compared with RNF2 silencing
Description: (§5) For immunoblotting, cells were washed with PBS and lysed in RIPA buffer (50 mM Tris-HCl pH 7.4, 150 mM NaCl, 1 mM EDTA, 1% Triton X-100, 1% sodium deoxycholate, and 0.1% SDS) supplemented with protease inhibitors (Calbiochem) and phosphatase inhibitors (PhosSTOP, Roche Life Science). Protein concentrations were measured by using the DC Protein Assay. Total RNA was extracted using the RNeasy Mini kit coupled with RNase-free DNase set (Qiagen) and reverse transcribed with SuperScript III First-Strand Synthesis SuperMix (Invitrogen). cDNA corresponding to approximately 10 ng of starting RNA was used for one reaction. Q-PCR was performed with Taqman Gene Expression Assay (Applied Biosystems). All quantifications were normalized to endogenous GAPDH.

RM1 cells [3] = assay: Metastasis in C57BL/6 mice injected with RM1 cells; type: in vivo, mouse
Description: as §1, §2
For bioluminescent imaging, mice were anesthetized and injected with 1.5 mg of D-luciferin retro-orbitally at the indicated times. Animals were imaged in an IVIS® 100 chamber within 5 min after D-luciferin injection, and data were recorded using LIVING IMAGE® software (Xenogen). To measure bone colonization after intracardiac injection, photon flux was calculated by using the ROI tool in the LIVING IMAGE® software. […]

PC3 cells [4] = assay: Gene expression changes and pathway analysis compared with RNF2 silencing; type: cell-based, human; conditions: compared with 2 and RNF2 silencing; data not shown
Description: Data were analyzed in Partek. Total RNAs were isolated from PC3 cells. Libraries were prepared suing the standard methodology from Illumina. Generated libraries were run on a HiSeq2500 system. Raw reads were quality-checked and subsequently mapped to the human genome (hg19) using Tophat2 (2.2.4) using default settings (Langmead and Salzberg, 2012). Differential gene expression was analyzed using the DESeq2 (1.8.1) package in R using default settings (Love et al., 2014). Gene set enrichment analysis (GSEA) (Subramanian et al., 2005) was performed on a pre-ranked gene list that generated based on the gene expression changes between the RNF2 knockdown and control cells. […] Heatmap analysis was performed to show the gene expression patterns between the RNF2 knockdown and control repeats, using heatmap3 R package with ward2 as distance function. Gene expressions in the heatmap were transformed in logarithm scale and normalized accordingly.

PRC1 = target: T1, PRC1 (Homo sapiens, UniProt Q99496); assay: Inhibition of H2Aub (monoubiquitylation of histone H2A) in PC3 cells; type: cell-based
T1 construct: PC3 cells were exposed to drugs for the indicated hours; endogenous in cells; host or cells: PC3 cells
T1 sequence (Q99496 2-336 limits assumed): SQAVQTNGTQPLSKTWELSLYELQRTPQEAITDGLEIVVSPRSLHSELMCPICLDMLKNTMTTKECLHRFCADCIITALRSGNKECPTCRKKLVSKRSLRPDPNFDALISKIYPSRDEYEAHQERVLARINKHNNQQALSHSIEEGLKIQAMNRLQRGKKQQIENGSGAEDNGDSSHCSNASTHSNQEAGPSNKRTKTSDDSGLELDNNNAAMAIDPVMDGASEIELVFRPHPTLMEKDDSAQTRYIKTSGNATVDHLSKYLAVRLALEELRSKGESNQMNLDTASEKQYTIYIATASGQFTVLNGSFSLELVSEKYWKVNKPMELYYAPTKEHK
Description: as §5
PC3 cells were exposed to drugs for the indicated hours, then harvested using […] EDTA in PBS, and washed once with cold PBS. Nuclear extracts were prepared and histones were extracted using 0.4N sulfuric acid. H2A or ubH2A was measured using the indicated antibodies.

RM1 cells [5] = assay: Tumor sphere assay, RM1 cells; type: cell-based, mouse; conditions: data not shown
Description: (§6) Single cell suspensions of LNCaP, DU145, PC3, PC3M or RM1 cells (1,000 cells/ml) were plated on ultra-low attachment plates and cultured in serum-free PrEGM (Lonza) supplemented with 1:50 B27, 20 ng/ml bFGF and 40 ng/ml EGF for 10 days. Tumor spheres were visualized under phase contrast microscope, photographed, and counted. For serial passage, tumor spheres were collected using 70-μm cell strainers and dissociated with ACCUTASE® for 30 min at 37° C. to obtain single-cell suspensions.

[6] = tested on: Pten^pc−/−Smad4^pc−/− cells; assay: Multi-organ metastasis in FVB/NJ mice inoculated intracardially with Pten pc-/- Smad4 pc-/- cells; type: in vivo, mouse; conditions: for Numbers of TAMs and Tregs in bone lesions: on-treatment staining of bone lesions
Description: as §1, §2, §3, §4
For iNOS/CD68 or Arg1/CD68 staining, first, slides were incubated with anti-iNOS or anti-Arg1 for 5 hours, followed by 60 minutes incubation with biotinylated goat anti-rabbit IgG at 1:200 dilution. The detection was performed with Streptavidin-HRP D (part of DABMap kit, Ventana Medical Systems), followed by incubation with Tyramide Alexa Fluor 488 prepared according to manufacturer instruction with predetermined dilutions. Next, sections were incubated with anti-CD68 for 5 hours, followed by 60 minutes incubation with biotinylated goat anti-rabbit IgG at 1:200 dilution. The detection was performed with Streptavidin-HRP D (part of DABMap kit, Ventana Medical Systems), followed by incubation with Tyramide Alexa CF 594 prepared according to manufacturer instruction with predetermined dilutions. After staining slides were counterstained with DAPI for 10 min and coverslipped with MOWIOL®.
At the end point in vivo experiment, blood and bone marrow cells were collected from each mouse and treated with Red Blood Cell lysis buffer for 5 minutes. Cells were then washed once with RPMI supplemented 2% FBS, stained with indicated antibodies and analyzed by FACS.

RNF2-PRC1 complex = target: T2, RNF2-PRC1 complex (Homo sapiens, UniProt Q99496); assay: In vitro ubiquitination assay (cell-free system); type: biochemical; conditions: data not shown
T2 construct: RNF2-PRC1 complex was immunoprecipitated from one 15 cm plate of PC3 cells; endogenous in cells; host or cells: PC3 cells (immunoprecipitate)
T2 sequence (Q99496 2-336 limits assumed): T1 sequence (Q99496 2-336 limits assumed)
Description: RNF2-PRC1 complex was immunoprecipitated from one 15 cm plate of PC3 cells. After extensive washing, the complex was pre-incubated with drugs at 4° C. for 30 minutes. UBCH5c, E1, were from Boston Biochem. Reactions were performed in 30 μl of ubiquitilation buffer (50 mM Tris, pH 7.5, 2.5 mM MgCl2, 0.5 mM DTT) containing ubiquitin-activating enzyme 100 ng E1, 200 ng UBCH5c, 10 μg ubiquitin, 0.2 mM ATP, 1 μg H2A, and the indicated PNF2-PRC1 complex. After incubated at 37° C. for 60 min, the reactions were then stopped by the addition of Laemmli sample buffer, and proteins were resolved by SDS-PAGE and immunoblotted using H2A antibody.

PC3 cells [7] = assay: Cell growth under standard culture conditions; type: cell-based, human; conditions: concentrations up to 1 μM, data not shown
Description: Control and RNF2-silenced PC3 cells were plated at 1×10^3 per well in 96 well plates for 24 hours. After 24 hours, cells were incubated in 0.5 mg/ml MTT (Invitrogen) for 2 h at 37° C. MTT crystals were dissolved in DMSO and absorbance was measured in a plate reader at 540 nm.
The candidate library was provided by the Organic Synthesis Core Facility from MSKCC. The testing concentration of candidate compounds on PC3 cells was 1 μM. RNF2 target gene expression change was used as a readout for the first round screen. Cell viability, tumor sphere formation assay and histone modification change were then used to further confirm the activity of the candidate compound.

PC3 cells [8] = assay: Tumor sphere assay, PC3 cells; type: cell-based, human; conditions: for IC50: Homo sapiens, PC-3, read-out: Inhibition of sphere formation ability normalized to control groups, IC50
Description: as §6

[9] = PC3 cells, titration experiments
[10] = PC3 cells, read-out: Inhibition of H2Aub normalized to control groups, IC50
[11] = bone metastatic sites, Pten/Smad4 and RM1 models

Compound: CNC(=O)c1cc(Oc2ccc3nc(N[C@@H]4CCCC[C@H]4O)sc3c2)ccn1 [BLZ945, reference compound]
Outgrowth of macroscopic bone lesions (bioluminescent imaging) (PC3 cells [1]): effectively inhibit the outgrowth of macroscopic bone lesions

Inhibition of H2AUb, fold more efficient as compared to 2 (PRC1; [9]): > 7.5 fold
IC50 (PRC1; [10]): 470 nM
Inhibition of PRC1 activity relative to 3 (PTC209) (PRC1; data not shown): more effectively as compared to 3
IC50 (PRC1; inhibitor of RNF2, read-out: Apparent IC50 in cells and on target): ~470 nM and ~500 nM
Compound: Nc1ccc(CCN2C(=O)c3c(F)c(F)c(F)c(F)c3C2=O)cc1 [Compound 1]
Downregulation or upregulation of key PRC1 targets (RT-qPCR) [2]: as effectively as silencing of RNF2
Outgrowth of bone, brain and liver metastases (RM1 cells [3]; C57BL/6 mice, data not shown): inhibited the outgrowth of bone, brain and liver metastases
FACS analysis of leukocytes from peripheral blood (RM1 cells [3]; treated mice): significant decrease of macrophages and increase of T cells and NK cells
Gene expression changes in cancer-relevant pathways (PC3 cells [4]): changes larger than those caused by 2 and by RNF2 silencing
Formation of bone metastases (PC3 cells [1]; 25 mg/kg, treatment from day 7, 2×/week): prevented formation of bone metastases
Expansion of bone macrometastases (PC3 cells [1]; 25 mg/kg, treatment from day 21, 2 weeks of treatment): significant suppression of their expansion
Nuclear H2AUb levels in bone sections (IHC) (PC3 cells [1]; bone sections of treated mice): substantially decreases
Secretion of CCL2 in the tumor microenvironment (IHC) (PC3 cells [1]; bone sections of treated mice): substantially decreases
Inhibition of tumor sphere (RM1 cells [5]): inhibited tumor sphere to a similar extent
Multi-organ metastasis (bioluminescent imaging) ([6]; 1 at 10 mg/kg, DCIT = anti-CTLA4 + anti-PD-1): only inhibited this process
Number of M1-like macrophages [6, 11]: increases the number of M1-like macrophages
Percentage of M2-like TAMs (CD68 and Arg1/iNOS double staining) [6, 11]: dramatically decreases the percentage of M2-like TAMs
Numbers of TAMs and Tregs in bone lesions ([6]; Pten/Smad4 and RM1 models): reduces the numbers of TAMs and Tregs
Numbers of MDSCs and TAMs (FACS) ([6]; peripheral blood and bone marrow): reduces the numbers of MDSCs and TAMs
Inhibition of RNF2-mediated H2AUb (RNF2-PRC1 complex): inhibited RNF2-mediated H2AUb in a dose-dependent fashion
Inhibition of cell growth (PC3 cells [7]): did not inhibit cell growth
IC50 (PC3 cells [8]; PC3 cells): 130 nM
Inhibition of sphere formation, fold more efficient as compared to 2 (PC3 cells [8]; [9]): > 7.5 fold

Compound: O=C1C(=Cc2cccnc2)C(=O)c2ccccc21 [Compound 2, 2-(pyridin-3-ylmethylene)-1H-indene-1,3(2H)-dione, reference compound]
Concentration at which PRC1 activity was inhibited, assessed by monoubiquitylation of histone H2A (PRC1): 25 µM
IC50 (PRC1; [10]): 3520 nM
Number of M1-like macrophages [6, 11]: increases the number of M1-like antigen presentation-competent macrophages
Numbers of TAMs and Tregs in bone lesions ([6]; Pten/Smad4 and RM1 models): suppresses the recruitment of total TAMs
IC50 (PC3 cells [8]; PC3 cells): 1050 nM
Concentration at which growth of oncospheres was inhibited (PC3 cells [8]; inhibited only at this concentration): 25 µM

Compound: Cc1ccc2c(c1)C1(CCN(CCc3nc(-c4ccccc4)oc3C)CC1)OC(=O)N2 [RS504393, reference compound]
Outgrowth of macroscopic bone lesions (bioluminescent imaging) (PC3 cells [1]): effectively inhibit the outgrowth of macroscopic bone lesions
